In patent US6329400A, “Formamide compounds as therapeutic agents” (Glaxo Wellcome Inc., priority 1998, dated 2001):
pIC50, pKi: −log10 of the molar value.

Key:
[1] = biological target: T1, TNFα converting enzyme (Homo sapiens, UniProt P78536); assay: TNFα Converting Enzyme Inhibition Protocol; assay type: biochemical; conditions: cell-free, MonoMac 6 membrane preparation; IC50 equivalent to Ki at [S]<<Km
T1 construct: Membrane preparation from MonoMac 6 cells; endogenous in cells; host or cells: MonoMac 6 cells (membrane preparation, subfractionated extract)
Description: B. TNFα Converting Enzyme Inhibition Protocol
The reaction is quenched by addition of streptavidin SPA beads (Amersham RPNQ0006), with excess binding capacity relative to substrate, suspended in 250 mM EDTA, pH 8.0. Binding is complete within 15 minutes and plates are counted in a Wallac 1450 Microbeta liquid scintillation counter. Percent inhibition is calculated at each inhibitor concentration and the data were plotted using standard curve fitting programs. IC50 values were determined from these curves.

[2] = biological target: T2, 19 kD truncated collagenase-1 (MMP-1) (Homo sapiens, UniProt P03956); assay: Matrix Metalloprotease Inhibition Protocol, collagenase-1; assay type: biochemical; conditions: fluorogenic substrate, pH 7.6; IC50 equivalent to Ki at [S]<<Km
T2 construct: 19 kD truncated collagenase-1 (MMP-1)
T2 sequence (P03956 101-269 limits assumed): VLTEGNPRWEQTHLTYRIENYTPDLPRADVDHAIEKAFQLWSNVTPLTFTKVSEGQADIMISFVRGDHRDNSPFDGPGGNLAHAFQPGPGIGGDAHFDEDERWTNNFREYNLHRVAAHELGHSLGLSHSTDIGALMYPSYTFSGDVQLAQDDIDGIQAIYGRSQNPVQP
Description: (§1) A. Matrix Metalloprotease Inhibition Protocol
(§2) Assays are conducted in a total volume of 0.180 mL assay buffer (200 mM NaCl, 50 mM Tris, 5 mM CaCl2, 10 μM ZnSO4, 0.005% Brij 35, pH 7.6) in each well of a black 96 well microtiter plate. 19 kD collagenase-1, 20 kD collagenase-3, stromelysin-1,and 50 kD gelatinase B concentrations are adjusted to 500 pM, 30 pM, 5 nM, and 100 pM, respectively. A dose response is generated using an eleven-point, 3-fold serial dilution with initial starting test compound concentrations of 100, 10, or 1 μM. Inhibitor and enzyme reactions are incubated for 30 minutes at ambient temperature and then initiated with 10 μM fluorogenic substrate (above). The product formation is measured at Excitation343 /Emission450 nm after 45-180 minutes using a Fluostar SLT fluorescence analyzer. Percent inhibition is calculated at each inhibitor concentration and the data were plotted using standard curve fitting programs. IC50 values were determined from these curves. Assays were run at low substrate concentration ([S]<<Km) such that the calculated IC50 values are equivalent to Ki within experimental error.

[3] = biological target: 20 kD truncated collagenase-3 (MMP-13); assay: Matrix Metalloprotease Inhibition Protocol, collagenase-3; assay type: biochemical; conditions: fluorogenic substrate, pH 7.6; IC50 equivalent to Ki at [S]<<Km
Description: as §1
as §2, with “curves.” for “curves. Assays were run at low substrate concentration ([S]<<Km) such that the calculated IC50 values are equivalent to Ki within experimental error.”

[4] = biological target: stromelysin-1 (MMP-3) (Homo sapiens, UniProt P08254); assay: Matrix Metalloprotease Inhibition Protocol, stromelysin-1; assay type: biochemical; conditions: fluorogenic substrate, pH 7.6; IC50 equivalent to Ki at [S]<<Km
Description: as §1, §2

[5] = biological target: 50 kD truncated gelatinase B (MMP-9); assay: Matrix Metalloprotease Inhibition Protocol, gelatinase B; assay type: biochemical; conditions: fluorogenic substrate, pH 7.6; IC50 equivalent to Ki at [S]<<Km
Description: as §1
as §2, with “curves.” for “curves. Assays were run at low substrate concentration ([S]<<Km) such that the calculated IC50 values are equivalent to Ki within experimental error.”

[6] = test system: TNFα release from MonoMac 6 cells; assay: Cell-Based TNFα Release Inhibition Protocol; conditions: Homo sapiens, MONO-MAC-6; LPS/PMA-stimulated MonoMac 6 cells, 37° C., 2 hours
Description: C. Cell-Based TNFα Release Inhibition Protocol
This solution is then diluted 1:1000 (40 ng/mL and 120 ng/mL) for use later in the assay. Compounds (10 mM) are serially diluted 1:3 in DMSO. Compound dilutions (20 μL) are added to a sterile round bottom 96 well plate (20 μL:200 μL total volume=1:10 for final concentrations of 50 μM for test compounds). MonoMac 6 cell suspension (130 μL, 1.5×10^6 cells/mL) is then added to each well resulting in 2×10^5 cells/well. LPS/PMA (50 μL) solution is then added to each well to begin stimulation (final concentrations of 10 ng/mL and 30 ng/mL respectively). The plate is incubated at 37° C. for 2 hours then spun at 1,500 rpm for 3 minutes to pellet cells. The supernatant (120 μL/well) is removed to a new round bottom 96 well plate and diluted 1:10 in PBS. Then, 20 μL of the supernatant is transferred to a Cistron TNFα ELISA plate and processed according to the manufacturer's instructions to quantitate levels of TNFα. Percent inhibition of TNFα release is calculated at each inhibitor concentration and the data were plotted using standard curve fitting programs. IC50 values were determined from these curves.

[7] = test system: serum TNFα; assay: Murine LPS-Stimulated Serum TNF Inhibition Protocol; assay type: in vivo; conditions: 40 mg/kg, 10 min prior to LPS, mice, 90 min after LPS
Description: Murine LPS--Stimulated Serum TNF Inhibition Protocol
The potency of compounds of the invention as inhibitors of serum TNFα elevation in mice treated with lipopolysaccharide (LPS) is determined as follows; a) for subcutaneous (s.c.) administration, test compound is dissolved in DMSO and added to a mixture of 0.9% sodium chloride solution and 30% Trappsol HPB-20 (Cyclodextrin Technology Development Inc., Gainesville, Fla. USA) for a final DMSO concentration of 1%. The dosing solution is sonicated briefly and 0.2 mL is injected subcutaneously 10 min prior to LPS injection, b) for per oral (p.o.) administration, test compounds are formulated in 0.2 mL of PBS and 0.1% Tween 80 and given orally via gavage 10 min prior to LPS administration.
C3/hen female mice are injected intraperitoneally with 200 μg/kg LPS (Escherichia coli, Serotype 0111:B4, Sigma Chemical Co, St. Louis, Mo.) in PBS and sacrificed 90 min later by CO2 asphyxiation. Blood is immediately taken from the caudal vena cava and plasma prepared and frozen at -80° C. Plasma concentrations of TNF are measured by ELISA (Genzyme Co., Cambridge Mass.).

stromelysin-1 (MMP-3), sequence (P08254 100-477): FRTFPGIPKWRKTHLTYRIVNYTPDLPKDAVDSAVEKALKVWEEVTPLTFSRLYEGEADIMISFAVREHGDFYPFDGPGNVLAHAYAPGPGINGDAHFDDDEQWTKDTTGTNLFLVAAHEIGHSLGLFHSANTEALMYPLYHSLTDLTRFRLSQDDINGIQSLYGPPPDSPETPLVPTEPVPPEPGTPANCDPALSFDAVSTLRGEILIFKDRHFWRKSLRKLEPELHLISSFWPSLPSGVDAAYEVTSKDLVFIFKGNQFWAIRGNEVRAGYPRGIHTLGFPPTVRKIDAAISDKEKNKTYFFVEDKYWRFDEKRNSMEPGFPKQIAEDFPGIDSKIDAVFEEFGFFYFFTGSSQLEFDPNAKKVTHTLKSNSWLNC
T1 sequence (P78536 215-824): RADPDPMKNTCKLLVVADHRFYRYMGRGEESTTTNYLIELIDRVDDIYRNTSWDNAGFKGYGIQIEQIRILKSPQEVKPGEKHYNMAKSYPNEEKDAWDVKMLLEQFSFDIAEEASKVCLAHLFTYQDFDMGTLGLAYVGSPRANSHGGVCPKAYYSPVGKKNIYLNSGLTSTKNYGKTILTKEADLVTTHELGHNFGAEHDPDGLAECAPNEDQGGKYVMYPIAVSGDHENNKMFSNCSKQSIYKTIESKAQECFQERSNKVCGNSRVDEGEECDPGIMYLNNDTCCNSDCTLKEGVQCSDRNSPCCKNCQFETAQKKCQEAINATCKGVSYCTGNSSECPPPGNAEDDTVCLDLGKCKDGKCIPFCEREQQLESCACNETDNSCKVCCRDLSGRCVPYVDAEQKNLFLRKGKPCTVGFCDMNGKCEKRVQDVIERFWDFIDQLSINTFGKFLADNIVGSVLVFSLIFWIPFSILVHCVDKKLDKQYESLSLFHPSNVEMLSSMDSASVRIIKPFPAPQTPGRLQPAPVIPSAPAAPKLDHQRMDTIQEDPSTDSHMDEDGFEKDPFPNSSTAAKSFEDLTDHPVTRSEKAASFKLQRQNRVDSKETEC

SMILES	pKi [1]	pKi [2]	pKi [3]	pKi [4]	pKi [5]	pIC50 [6]	Percentage Inhibition of Serum TNFα ([7]; s.c.)	Percentage Inhibition of Serum TNFα ([7]; p.o.)
C[C@@H]([C@@H](CCCc1ccccc1)C(=O)N[C@H](C(=O)Nc1cccnc1)C(C)(C)C)N(O)C=O [Example 1, (2R,3S)-3-(Formyl-hydroxyamino)-2-(3-phenyl-1-propyl)butanoic Acid [(1S)-2,2-Dimethyl-1-(pyridine-3-ylcarbamoyl)-1-propyl]amide]	6.00 to 6.30	> 7.00	> 7.00	> 7.00	> 7.00			
C[C@@H]([C@@H](CC1CCC(c2ccccc2)CC1)C(=O)N[C@H](C(=O)Nc1nccs1)C(C)(C)C)N(O)C=O (stereo partly drawn) [Example 2, (2R,3S)-3-(Formyl-hydroxyamino)-2-(4-phenylcyclohexylmethyl)butanoic Acid [(1S)-2,2-Dimethyl-1-(1,3-thiazol-2-ylcarbamoyl)-1-propyl]amide]	> 7.00	6.00 to 6.30	> 7.00	6.30 to 7.00	6.30 to 7.00	< 6.00		
CCC[C@@H]([C@@H](CCCc1ccccc1)C(=O)N[C@@H](CCCCNC(=O)OCc1ccccc1)C(=O)Nc1nncs1)N(O)C=O [Example 3, (2R,3S)-3-(Formyl-hydroxyamino)-2-(3-phenyl-1-propyl)hexanoic Acid [(1S)-5-Benzyloxycarbonylamino-1-(1,3,4-thiadiazol-2-yl-carbamoyl)-1-pentyl]amide]	> 7.00	< 6.00		> 7.00		6.30 to 7.00		
CCC[C@@H]([C@@H](CCCc1ccoc1)C(=O)N[C@@H](CCCCNC(=O)OCc1ccccc1)C(=O)Nc1nccs1)N(O)C=O [Example 4, (2R,3S)-3-(Formyl-hydroxyamino)-2-(3-(3-furyl)-1-propyl)hexanoic Acid [(1S)-5-Benzyloxycarbonylamino-1-(1,3-thiazol-2-ylcarbamoyl)-1-pentyl]amide]	> 7.00	< 6.00	> 7.00	> 7.00	6.30 to 7.00	> 7.00		
CCC[C@@H]([C@@H](CCCc1ccoc1)C(=O)N[C@H](C(=O)Nc1nccs1)C(C)(C)C)N(O)C=O [Example 5, (2R,3S)-3-(Formyl-hydroxyamino)-2-(3-(3-furyl)-1-propyl)hexanoic Acid [(1S)-2,2-Dimethyl-1-(1,3-thiazol-2-ylcarbamoyl)-1-propyl]amide]		6.00 to 6.30	> 7.00	> 7.00	> 7.00	6.30 to 7.00		
CCC[C@@H]([C@H](COCc1ccccc1)C(=O)N[C@@H](CCCCNC(=O)OCc1ccccc1)C(=O)Nc1nccs1)N(O)C=O [Example 6, (2R,3S)-3-(Formyl-hydroxyamino)-2-(benzyloxymethyl)hexanoic Acid [(1S)-5-Benzyloxycarbonylamino-1-(1,3-thiazol-2-ylcarbamoyl)-1-pentyl]amide]	> 7.00	< 6.00	6.30 to 7.00	6.30 to 7.00	< 6.00	< 6.00		
CCC[C@@H]([C@@H](CC(C)Cc1ccccc1)C(=O)N[C@H](C(=O)Nc1nccs1)C(C)(C)SCCNC(=O)OCc1ccccc1)N(O)C=O (stereo partly drawn) [Example 7, (2R,3S)-3-(Formyl-hydroxyamino)-2-(3-phenyl-2-methyl-1-propyl)hexanoic Acid [(1R)-2-Methyl-2-(2-benzyloxycarbonylamino-1-ethylsulfanyl)-1-(1,3-thiazol-2-ylcarbamoyl)-1-propyl]-amide]	6.30 to 7.00	< 6.00	6.00 to 6.30	< 6.00	< 6.00	< 6.00		
CCC[C@@H]([C@@H](CC(C)Cc1ccccc1)C(=O)N[C@H](C(=O)Nc1nccs1)C(C)(C)C)N(O)C=O (stereo partly drawn) [Example 8, (2R,3S)-3-(Formyl-hydroxyamino)-2-(3-phenyl-2-methyl-1-propyl)hexanoic Acid [(1S)-2,2-Dimethyl-1-(1,3-thiazol-2-ylcarbamoyl)-propyl]amide]	> 7.00	< 6.00	6.30 to 7.00	< 6.00	< 6.00	< 6.00		
CCC[C@@H]([C@@H](CC(C)Cc1ccccc1)C(=O)N[C@@H](CCCCNC(=O)OCc1ccccc1)C(=O)Nc1nccs1)N(O)C=O (stereo partly drawn) [Example 9, (2R,3S)-3-(Formyl-hydroxyamino)-2-(3-phenyl-2-methyl-1-propyl)hexanoic Acid [(1S)-5-Benzyloxycarbonylamino-1-(1,3-thiazol-2-ylcarbamoyl)-1-pentyl]amide]		< 6.00	6.00 to 6.30	< 6.00	< 6.00	6.30 to 7.00		
CCC[C@@H]([C@@H](Cc1ccc(C)s1)C(=O)N[C@H](C(=O)Nc1nccs1)[C@@H](C)OCc1ccccn1)N(O)C=O [Example 146, (2R,3S)-3-(Formyl-hydroxyamino)-2-(5-methyl-2-thiophenemethyl)hexanoic Acid [(1S,2R)-2-(2-Pyridylmethoxy)-1-(1,3-thiazol-2-ylcarbamoyl)-1-propyl]amide]							++ (50%-75%)	
CC(C)(C)[C@H](NC(=O)[C@H](CCCc1ccccc1)[C@H](CCC(F)(F)F)N(O)C=O)C(=O)Nc1nccs1 [Example 183, (2R,3S)-3-(Formyl-hydroxyamino)-2-(3-phenyl-1-propyl)-6,6,6-trifluorohexanoic Acid [(1S)-2,2-Dimethyl-1-(1,3-thiazol-2-ylcarbamoyl)-1-propyl]amide]	6.30 to 7.00	< 6.00	> 7.00	6.30 to 7.00	> 7.00			++ (50%-75%)
C[C@@H]([C@@H](CCCc1ccc(Cl)cc1)C(=O)N[C@H](C(=O)Nc1cccnc1)C(C)(C)C)N(O)C=O [Example 195, (2R,3S)-3-(Formyl-hydroxyamino)-2-(3-(4-chlorophenyl)-1-propyl)butanoic Acid [(1S)-2,2-Dimethyl-1-(pyridine-3-ylcarbamoyl)-1-propyl]amide]	< 6.00	> 7.00	> 7.00	> 7.00	> 7.00			
